Reference: ChEMBL document CHEMBL4257523, “Chemical probes of Skp2-mediated p27 ubiquitylation and degradation” (Medchemcomm, 2018)

Columns and labels:
[1] = test system: S-phase kinase-associated protein 1/S-phase kinase-associated protein 2 (Homo sapiens); experiment: Inhibition of SKP1/SKP2 protein-protein interaction in human MM1S cells assessed as reduction in p27 ubiquitylation at 20 uM after 16 hrs by PAGE analysis relative to control
[2] = test system: RPMI-8226; experiment: Antiproliferative activity against doxorubicin-resistant human RPMI8226 cells; format: functional, cell-based
[3] = test system: MM1.S; experiment: Antiproliferative activity against human MM1S cells; format: functional, cell-based
[4] = test system: S-phase kinase-associated protein 1/S-phase kinase-associated protein 2 (Homo sapiens); experiment: Inhibition of SKP1/SKP2 protein-protein interaction in human MM1S cells assessed as reduction in p27 ubiquitylation at 25 uM after 16 hrs by PAGE analysis relative to control
[5] = test system: U-266; experiment: Antiproliferative activity against human U266 cells; format: functional, cell-based
[6] = Antiproliferative activity against human ANBL6/B7R cells; format: functional, cell-based; conditions: ANBL-6
[7] = test system: S-phase kinase-associated protein 1/S-phase kinase-associated protein 2 (Homo sapiens); experiment: Inhibition of SKP1/SKP2 protein-protein interaction in human MM1S cells assessed as reduction in p27 ubiquitylation at 10 uM after 16 hrs by PAGE analysis relative to control
[8] = test system: RPMI-8226; experiment: Antiproliferative activity against human RPMI8226 cells; format: functional, cell-based
[9] = Antiproliferative activity against human MM1R cells; format: functional, cell-based; conditions: MM.1R
[10] = Antiproliferative activity against human ANBL-6 cells; format: functional, cell-based
[11] = Antiproliferative activity against human U266/LR6 cells; format: functional, cell-based; conditions: U-266
[12] = Antiproliferative activity against human RPMI8226/LR5 cells; format: functional, cell-based; conditions: RPMI-8226
[13] = Antiproliferative activity against mouse tsFT210 cells; format: functional, cell-based
[14] = test system: NIH3T3; experiment: Antiproliferative activity against mouse NIH/3T3 cells; format: functional, cell-based
[15] = test system: HeLa; experiment: Antiproliferative activity against human HeLa cells; format: functional, cell-based
[16] = Antiproliferative activity against human ECC1 cells; format: functional, cell-based; conditions: ECC-1
[17] = test system: JeKo-1; experiment: Antiproliferative activity against human JeKo1 cells; format: functional, cell-based
[18] = molecular target: T1, Cyclin-dependent kinases regulatory subunit 1/S-phase kinase-associated protein 2 (Homo sapiens, UniProt P61024+Q13309); experiment: Inhibition of GST-tagged SKP2 (unknown origin)/His6-tagged CKS1 (unknown origin) expressed in Escherichia coli protein-protein interaction after 1 hr by Alpha screen assay
Target sequence in this assay (P61024 whole entry): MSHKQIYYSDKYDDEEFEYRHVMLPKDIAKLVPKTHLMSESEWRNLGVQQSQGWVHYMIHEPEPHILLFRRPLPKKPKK
Target sequence in this assay (Q13309 whole entry): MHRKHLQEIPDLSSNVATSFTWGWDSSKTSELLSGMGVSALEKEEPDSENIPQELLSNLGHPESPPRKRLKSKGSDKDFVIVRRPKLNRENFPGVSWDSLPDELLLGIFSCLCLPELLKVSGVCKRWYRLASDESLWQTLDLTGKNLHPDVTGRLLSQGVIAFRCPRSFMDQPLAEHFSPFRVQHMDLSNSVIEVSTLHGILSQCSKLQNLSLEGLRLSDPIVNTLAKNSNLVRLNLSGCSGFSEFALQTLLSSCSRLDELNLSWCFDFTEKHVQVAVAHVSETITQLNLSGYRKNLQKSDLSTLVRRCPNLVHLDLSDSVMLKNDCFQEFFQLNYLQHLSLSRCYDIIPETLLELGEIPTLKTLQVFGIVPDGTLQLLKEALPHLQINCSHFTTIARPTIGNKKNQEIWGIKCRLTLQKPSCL

[19] = molecular target: T1, Cyclin-dependent kinases regulatory subunit 1/S-phase kinase-associated protein 2; experiment: Inhibition of N-terminal fluorescent monomeric Azami Green-tagged SKP2 (unknown origin)/CKS1 (unknown origin) expressed in Escherichia coli DH10 protein-protein interaction assessed as reduction in p27 ubiquitylation at 0.4 to 3.2 uM relative to control
Target sequence in this assay (P61024 2-79 limits assumed): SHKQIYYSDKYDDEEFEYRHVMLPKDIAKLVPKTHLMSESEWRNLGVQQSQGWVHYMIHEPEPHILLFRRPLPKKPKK
Target sequence in this assay (Q13309 whole entry partner): as the sequence (Q13309 whole entry) above

## CN(C)c1ccc(CNCCC(Cc2ccccc2)C2CCOC(C)(C)C2)cc1 (configuration not stated)
[1]
  inhibition: 44%
[2]
  IC50: 8.5 µM
[3]
  IC50: 5.4 µM
[4]
  inhibition: 51%
[5]
  IC50: 4.2 µM
[6]
  IC50: 8 µM
[7]
  inhibition: 8%
[8]
  IC50: 8 µM
[9]
  IC50: 5.4 µM
[10]
  IC50: 10 µM
[11]
  IC50: 4.3 µM
[12]
  IC50: 6.3 µM

## CN(C)c1ccc(C(=C2C=CC(=[N+](C)C)C=C2)c2ccc(N(C)C)cc2)cc1 [GENTIAN VIOLET]
[13]
  IC50: 0.6 µM
[14]
  IC50: 5.3 µM
[15]
  IC50: 0.4 µM

## COC(=O)C1=C(C)N(c2ccc(Br)cc2)C(=O)/C1=C\c1ccccc1O
[16]
  EC50: 14.3 µM
[17]
  EC50: 9.3 µM

## O=C(OC12CC3CC(CC(C3)C1)C2)c1ccc(NCc2cc(O)ccc2O)cc1
[18]
  IC50: 36 µM

## C=C(C)C(=O)O[C@H]1CC(=C)[C@@H]2C[C@H](O)[C@](O)(CCl)[C@@H]2[C@H]2OC(=O)C(=C)[C@@H]21
[13]
  IC50: 1.6 µM
[14]
  IC50: 12.7 µM
[19]
  inhibition: 70 to 80%
[15]
  IC50: 3.2 µM
